Experimental data reported in patent US20140371158A1, “BEAUVERICIN COMPOSITIONS AND METHODS THEREOF FOR INHIBITING THE HSP90 CHAPERONE PATHWAY” (Georgia Regents University, priority 2013, published 2014).
≈ marks a conversion by molar mass, not a printed value.

Assays:
[1] = test system: Hsp90 chaperone (refolding of PRA in RRL); assay: Progesterone receptor (PR) reconstitution assay in rabbit reticulocyte lysate, recovery of hormone binding activity; type: biochemical
Text: To identify novel small molecule inhibitors of molecular chaperones, a high-throughput functional screen was developed based on the isoform A of progesterone receptor (PRA), a well-established physiological client of Hsp90, and using rabbit reticulocyte lysate (RRL) as a source of molecular chaperones. This comprehensive functional assay measured the recovery of hormone binding activity of PRA after mild heat treatment. Purified PR was adsorbed onto PR22 antibody bound to protein A that was absorbed on 96 well plates. 100 μl of RRL lysate and ATP regeneration system was added to each well. After incubation for 30 min at 30° C., 0.1 μM [^3H]-progesterone (American Radiolabeled Chemicals, Inc #ART 0063) was added. Plates were incubated on ice for 2 h at 4° C. Complexes were then washed three times with 200 μl of reaction buffer (20 mM Tris/HCl, pH 7.5, 5 mM MgCl2, 2 mM DTT, 0.01% NP-40, 50 mM KCl and 5 mM ATP) and assessed for bound progesterone by liquid scintillation using PerkinElmer Microbeta plate reader.
Beauvericin was added to the PR reconstitution assay as in example 1, and hormone binding activity was measured.

PRA complexes = assay: PR reconstitution assay in tubes, composition of protein complexes by SDS-PAGE; type: biochemical, rabbit; conditions: FIG. 3
Experimental: (§1) Purified PR was adsorbed onto PR22 antibody-protein A-sepharose resin beads and was assembled into complexes as described previously (Kosano, et al., J Biol Chem, 273:32973-9 (1998)). Briefly, about 0.05 μM PR was incubated with 100 μl of RRL. After incubation for 30 min at 30° C., 0.1 μM [^3H]-progesterone (American Radiolabeled Chemicals, Inc #ART 0063) was added. Samples were incubated on ice for 3 h at 4° C. Complexes were then washed three times with 1 ml reaction buffer (20 mM Tris/HCl, pH 7.5, 5 mM MgCl2, 2 mM DTT, 0.01% NP-40, 50 mM KCl and 5 mM ATP) and assessed for bound progesterone by liquid scintillation using PerkinElmer Microbeta plate reader, and for composition of protein complexes by SDS-PAGE (10% gel) and Coomassie blue staining.

[2] = test system: Hsp90, Hsp70, Hsp40, HOP and p23; assay: PR reconstitution assay using the five purified chaperones; type: biochemical; conditions: FIG. 4
Experimental: as §1, with “Chem” for “Chem,”, “1.4 μM Hsp70, 0.8 μM Hsp90β, 0.2 μM Hsp40 (Ydj), 0.08 μM HOP and 2.6 μM p23 in reaction buffer (20 mM Tris/HCl, pH 7.5, 5 mM MgCl2, 2 mM DTT, 0.01% NP-40, 50 mM KCl and 5 mM ATP).” for “100 μl of RRL.”, “ml of” for “ml”, “buffer” for “buffer (20 mM Tris/HCl, pH 7.5, 5 mM MgCl2, 2 mM DTT, 0.01% NP-40, 50 mM KCl and 5 mM ATP)”, “reader” for “reader,”

[3] = test system: Hs578T breast cancer cells; assay: Cytotoxicity assay, Hs578T; type: cell-based; conditions: 0-10 μM, 24, 48, 72 h, FIG. 6A
[4] = test system: MDA-MB-453 breast cancer cells; assay: Cytotoxicity assay, MDA-MB-453; type: cell-based; conditions: 0-10 μM, 24, 48, 72 h, FIG. 6B
[5] = test system: Hsp90 client proteins in Hs578T cells; assay: Western blot of Hsp90 client proteins, Hs578T; type: cell-based; conditions: 3 μM, 48 h
Experimental: (§2) Breast cancer cell lines Hs578T and MDA-MB-453 at 40% confluence in 6-well plates (Corning #3516) were cultured for 24 h and then treated with various concentrations of beauvericin. Cells were harvested at indicated time and cell lysates were made. 15 μg of protein lysate were analyzed by Western blotting using specific antibodies for the indicated proteins.
(§3) Cell lysates prepared in Example 5 were analyzed for markers for heat shock response using western blot. These include overexpression of Hsp70, Hsp27, Hsp40 and HOP.

[6] = test system: Hsp90 client proteins in MDA-MB-453 cells; assay: Western blot of Hsp90 client proteins, MDA-MB-453; type: cell-based; conditions: 3 μM, 48 h
Experimental: as §2, §3

[7] = test system: Hsp70, Hsp27, Hsp40 and HOP in Hs578T and MDA-MB-453 cells; assay: Western blot of markers for heat shock response; type: cell-based; conditions: 3 μM, 48 h, FIG. 7
Experimental: as §2, §3

HeLa-PRB cells = assay: Immunocytochemistry and fluorescence microscopy, nucleocytoplasmic trafficking of steroid receptors; type: cell-based
Experimental: HeLa-PRB cells were grown in 24-well plates (Corning #3337) on micro-cover glasses (Electron Microscopy Sciences) to about 50% confluence in MEM, 1× (Cellgro #10-010-CV) medium supplemented with 10% fetal bovine serum. Cells were treated with 3 μM beauvericin (or DMSO control) for 24 h. Cells were fixed with 0.1 M PIPES, pH 6.95, 1 mM EGTA, pH 8.0, 3 mM MgSO4, 3% paraformaldehyde, permeabilized with 0.1% triton X-100, and blocked with 10% fetal bovine serum with 5% glycerol and stored at 4° C. Primary antibodies against PRB, GR and Hsp90 and secondary antibodies were prepared in the blocking buffer. Coverslips were washed and mounted on slides with ProLong Gold anti-fade reagent with 4′,6-diamidino-2-phenylindole (Invitrogen). Cells were imaged using a Zeiss Imager M1 microscope. Deconvolution of Z-stack images was done using an inverse filter algorithm with auto-linear normalization.

[8] = Sigma-Aldrich product B7510, powder; cited from earlier work

CC(C)[C@@H]1OC(=O)[C@@H](Cc2ccccc2)N(C)C(=O)[C@H](C(C)C)OC(=O)[C@@H](Cc2ccccc2)N(C)C(=O)[C@H](C(C)C)OC(=O)[C@@H](Cc2ccccc2)N(C)C1=O [beauvericin]
inhibition of reconstitution of PRA in RRL (hormone binding activity) ([1]; FIG. 1, compared with 17-AAG): comparable efficacy to the classical Hsp90 inhibitor 17-AAG
inhibition of the ability of the Hsp90 chaperone to refold PRA ([1]; FIG. 2, 0, 1, 5, 10, 20, 40 μM): concentration-dependent manner
level of Hsp90 in PRA complexes (PRA complexes): decreased
recruitment of Exportin-7 into PRA complexes (PRA complexes; mass spectrometry): caused the recruitment of a novel protein into these complexes
inhibitory activity on five-protein system (PRA reconstitution) [2]: no inhibitory activity
in vitro cytotoxicity (relative survival) [3]: potent in vitro cytotoxicity
in vitro cytotoxicity (relative survival) [4]: potent in vitro cytotoxicity
AKT destabilization [5]: destabilized
Her2 destabilization [5]: reverse profile
cellular degradation of Hsp90 clients (AKT, pAKT, CDK4, ILK, Her2, Her3, GR) ([5]; FIG. 7A): caused cellular degradation
AKT destabilization [6]: not
Her2 destabilization [6]: reverse profile
cellular degradation of Hsp90 clients (AKT, pAKT, CDK4, ILK, Her2, Her3, GR) ([6]; FIG. 7B): caused cellular degradation
Hsp40 expression [7]: down-regulates
overexpression of HOP [7]: does not induce overexpression
overexpression of Hsp27 ([7]; in contrast to 17-AAG): does not induce overexpression
overexpression of Hsp70 ([7]; in contrast to 17-AAG): does not induce overexpression
PRB stability by Western blot (HeLa-PRB cells; HeLa-PRB cells): not destabilized
PRB recognition by the monoclonal antibody PR6 in immunocytochemistry (HeLa-PRB cells; HeLa-PRB, 3 μM, 24 h): reproducibly blocked
glucocorticoid receptor (GR) localization (HeLa-PRB cells; HeLa-PRB, 3 μM, 24 h): lock it in the nucleus
solubility in acetonitrile [8]: 1000 µg/mL (≈ 1280 µM)
solubility in methanol [8]: 1000 µg/mL (≈ 1280 µM)
